Values quoted from earlier work, collected in patent US20250230478A1, “COMBINATION OF NUCLEIC ACID SEQUENCES ENCODING PROTEINS DERIVED FROM HELICHRYSUM UMBRACULIGERUM, AND ANY […], TISSUE, AND ORGANISM COMPRISING SAME” (YEDA RESEARCH AND DEVELOPMENT CO. LTD., priority 2022, published 2025).

Legend:
5-HT1A receptor = target: T1, 5-HT1A receptor (Homo sapiens, UniProt P08908)
T1 sequence (P08908 1-422): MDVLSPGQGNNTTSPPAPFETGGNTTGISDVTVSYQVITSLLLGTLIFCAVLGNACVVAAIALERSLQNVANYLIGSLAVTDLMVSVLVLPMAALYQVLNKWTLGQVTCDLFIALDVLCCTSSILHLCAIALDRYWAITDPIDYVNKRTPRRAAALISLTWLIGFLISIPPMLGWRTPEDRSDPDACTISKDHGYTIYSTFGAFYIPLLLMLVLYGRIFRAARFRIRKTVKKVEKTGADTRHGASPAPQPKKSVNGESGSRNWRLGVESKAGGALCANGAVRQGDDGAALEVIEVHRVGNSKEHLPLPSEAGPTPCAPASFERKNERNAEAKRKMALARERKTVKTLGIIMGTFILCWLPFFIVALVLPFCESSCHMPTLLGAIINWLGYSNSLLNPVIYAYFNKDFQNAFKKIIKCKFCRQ

CB1 receptor = CB1 receptor (Homo sapiens, UniProt P21554)
CB1 receptor, sequence (P21554 whole entry): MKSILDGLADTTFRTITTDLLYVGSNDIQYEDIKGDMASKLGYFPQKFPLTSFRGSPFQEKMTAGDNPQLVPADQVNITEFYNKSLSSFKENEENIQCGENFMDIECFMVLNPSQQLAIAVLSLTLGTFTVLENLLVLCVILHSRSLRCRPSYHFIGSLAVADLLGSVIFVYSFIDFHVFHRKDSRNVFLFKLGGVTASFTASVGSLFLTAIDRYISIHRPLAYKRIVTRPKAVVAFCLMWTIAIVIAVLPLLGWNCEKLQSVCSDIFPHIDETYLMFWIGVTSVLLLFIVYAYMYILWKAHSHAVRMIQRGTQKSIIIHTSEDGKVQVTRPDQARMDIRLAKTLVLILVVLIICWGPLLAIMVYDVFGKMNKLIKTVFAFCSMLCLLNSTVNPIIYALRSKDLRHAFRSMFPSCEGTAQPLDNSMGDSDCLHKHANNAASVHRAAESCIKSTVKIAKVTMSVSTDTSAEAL

In the case of `CCCCCc1cc(O)c(C/C=C(\C)CCC=C(C)C)c(O)c1` [CBG, cannabigerol], the “affinity as α2-adrenergic receptor agonist” value (α2-adrenergic receptor) is listed as “high affinity”, the “affinity as 5-HT1A receptor antagonist” value (5-HT1A receptor) is listed as “moderate affinity” and the “affinity as CB1 receptor antagonist” value (CB1 receptor) is listed as “low affinity”.
